Measurements from patent US9566347B2, “Peptides and methods using same” (The Trustees of the University of Pennsylvania, priority 2011, dated 2017).
Positions of bridges follow the written chain, without caps; N, C: chain ends. Residues, ends and D or L forms follow the SMILES beside them. No end group written: not given here.

Experiments:
[1] = Two-color persistence of opsonized nanobeads in circulation of NSG mice; format: in vivo; details: 160 nm opsonized streptavidin polystyrene beads
Method: FIG. 3A illustrates a two color experiment in which nanoparticles (or cells) are mixed and injected into the same mouse after labeling with or without the peptide with distinct fluorescent red dye (PKH26) or far-red (DiD). 50 μl of blood was periodically sampled from the eyes, and flow cytometry analysis of the decay in nanoparticle (or cell) numbers was used to calculate the time-dependent ‘persistence ratio’ in each mouse. Colors were labeled as 1 and 2. FIG. 3B is a graph illustrating an experiment where 160 nm polystyrene beads coated with streptavidin were bound to biotinylated versions of synthetic FG-peptide, or else negative controls of either scrambled peptide or PEG. Beads were opsonized with anti-streptavidin and then injected. n=6 mice. […] Avg.±SEM for all results.

[2] = target: soluble hSIRP-alpha (Homo sapiens, UniProt P78324); assay: Binding of polypeptide-coated beads to soluble hSIRP-alpha by flow cytometry
Description: FIG. 4 illustrates binding and phagocytosis inhibition of peptides in relation to human-SIRP-alpha. Affinity of polypeptides coated beads binding to soluble hSIRP-alpha based on flow cytometry. Saturation binding fit gave the indicated dissociation constant, Kd.
(§1) Synthesis of the three designs and Scrambled-peptides with or without biotin attached via either an aminohexanoic acid linker (C6) or a PEG linker, enabled functional testing of binding to soluble hSIRP-alpha as well as inhibition of nanobead phagocytosis. […] The 10-aa FG-hairpin was synthesized without attachment of biotin for use as a soluble inhibitor of hSIRP-alpha binding to polypeptide beads. […] While conformational constraints the minimal FG-hairpin combined with the likely lack of a stable structure underscores the utility of at least some backbone flexibility.

[3] = tested on: spleen macrophages; details: NSG mice, near-infrared particles
Description: To assess whether the particles had been taken up by spleen macrophages in NSG mice, tissue sections were immunostained for macrophages and imaged by fluorescence microscopy.

[4] = target: hSIRP-alpha (Homo sapiens, UniProt P78324); assay: Soluble peptide inhibition of hSIRP-alpha binding to polypeptide beads
Description: as §1

[5] = tested on: THP-1 cells; assay: Phagocytosis assay of peptide-coated opsonized nanobeads in THP-1 cell line; format: cell-based; details: opsonized beads
Method: FIG. 3A illustrates a two color experiment in which nanoparticles (or cells) are mixed and injected into the same mouse after labeling with or without the peptide with distinct fluorescent red dye (PKH26) or far-red (DiD). 50 μl of blood was periodically sampled from the eyes, and flow cytometry analysis of the decay in nanoparticle (or cell) numbers was used to calculate the time-dependent ‘persistence ratio’ in each mouse. Colors were labeled as 1 and 2. FIG. 3B is a graph illustrating an experiment where 160 nm polystyrene beads coated with streptavidin were bound to biotinylated versions of synthetic FG-peptide, or else negative controls of either scrambled peptide or PEG. Beads were opsonized with anti-streptavidin and then injected. n=6 mice. FIG. 3C is a graph illustrating the inverse correlation between the in vivo ratio of beads with or without peptide at 35 min and the inhibition of phagocytosis in vitro at 45 min for 160 nm beads. FIG. 3D is a graph illustrating macrophage SIRPa1 tyrosine phosphorylation upon contact with FG-peptide bound to opsonized beads and phagocytosed by THP-1 cells. From cell lysates, SIRP-alpha was immunoprecipitated and immunoblotted for quantitation of phosphotyrosine per total SIRP-alpha (n=3). Avg.±SEM for all results.
FIG. 4 illustrates binding and phagocytosis inhibition of peptides in relation to human-SIRP-alpha. […]

soluble hSIRP-alpha, sequence (P78324 31-373 limits assumed): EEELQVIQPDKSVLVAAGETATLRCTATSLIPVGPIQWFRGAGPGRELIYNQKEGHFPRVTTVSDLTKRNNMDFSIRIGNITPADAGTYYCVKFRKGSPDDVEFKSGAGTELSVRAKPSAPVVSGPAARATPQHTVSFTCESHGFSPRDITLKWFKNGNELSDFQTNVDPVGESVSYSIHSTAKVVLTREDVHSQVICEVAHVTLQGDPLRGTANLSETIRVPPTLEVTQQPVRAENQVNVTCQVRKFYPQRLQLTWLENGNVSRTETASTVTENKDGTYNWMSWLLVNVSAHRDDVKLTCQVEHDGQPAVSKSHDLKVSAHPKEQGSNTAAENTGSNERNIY
hSIRP-alpha, sequence (P78324 31-373 limits assumed): as above

## GNYTCEVTELTREGETIIELK [FG-peptide]
[1]
  circulation of nanoparticles: prolong the circulation of nanoparticles
[2]; saturation binding fit, biotinylated peptide on streptavidin beads, C6 or PEG linker, read-out: affinity for SIRP-alpha (Kd)
  Kd: 110 to 160 nM
[3]
  particle uptake, whole organ imaging: reducing but not eliminating uptake

## CC(C)C[C@H](NC(=O)[C@H](CCC(=O)O)NC(=O)[C@@H](NC(=O)[C@@H](NC(=O)[C@@H](N)CCC(=O)O)C(C)C)[C@@H](C)O)C(=O)N[C@H](C(=O)N[C@@H](CCCNC(=N)N)C(=O)N[C@@H](CCC(=O)O)C(=O)NCC(=O)N[C@@H](CCC(=O)O)C(=O)O)[C@@H](C)O [FG-hairpin, EVTELTREGE] (H-EVTELTREGE-OH; N-terminus and C-terminus assumed)
[4]
  Ki: 100 to 200 nM

## CEVTELTREGEC (disulfide 1-12 (inferred)) [FG-SS-peptide, 12-aa peptide with Cys substitution intended to disulfide-stabilize the β-hairpin]
[2]; peptide-coated beads, soluble hSIRP-alpha
  affinity / binding to hSIRP-alpha (in words): no significant affinity
[5]
  inhibition of nanobead phagocytosis: no statistically significant inhibition of phagocytosis
